# Source: article PMC7448270, “Channeling C1 Metabolism toward S-Adenosylmethionine-Dependent Conversion of Estrogens to Androgens in Estrogen-Degrading Bacteria” (mBio, 2020)
# Test system: T1, estradiol/estrogen methyltransferase (EMT; EmtABCD)
# T1 construct: gene emtA; native, not purified; cell-free extract of estradiol-grown cells; assignment to emtABCD by proteogenomics; with Estrogen methyltransferase component EmtC; Estrogen methyltransferase component EmtD (oxidoreductase-like, putative reductive cofactor regeneration)
# Test: UPLC assay of methylation by cell-free extract, Michaelis-Menten
# Type: biochemical, Denitratisoma oestradiolicum
# Conditions: SAM methyl donor, Ti(III)-citrate, MgCl2, HEPES/KOH pH 8.0, 30°C, anaerobic; crude soluble extract, enzyme not purified
row,SMILES,Km [µM]
1,C[C@]12CC[C@@H]3c4ccc(O)cc4CC[C@H]3[C@@H]1CC[C@@H]2O [17β-estradiol],35 ± 4
2,C[C@]12CC[C@@H]3c4ccc(O)cc4CC[C@H]3[C@@H]1CCC2=O [estrone],14 ± 3
